Assay results taken from patent publication US20220348590A1, “CYCLOOXYGENASE-2 INHIBITORS AND USES THEREOF” (The Board Institute, Inc., priority 2019, published 2022).
Values after ≈ are worked out from the molar mass of the structure shown. Like-named read-outs stand apart in the source and are kept apart here.

What was measured:
[1] = biological target: T1, human recombinant COX2 (hCOX2) (UniProt P35354); test: LCMS-based COX2 enzymatic inhibition assay (PGE2 quantification); type: biochemical; set-up: COX2 2 minutes pge2/pge2d4 area ratio Avg; other: 2 minutes; readout pge2/pge2d4 area ratio; average; COX2 2 minutes pge2/pge2d4 area ratio Avg; LLE; average LLE; COX2 2 minutes pge2 area (counts) Avg; readout pge2 area (counts); other: 2 min; "ovine COX2 (oCOX2), human recombinant COX2 (hCOX2)"; conditions: for COX2 2 minutes pge2/pge2d4 area ratio Avg. LLE / COX2 2 minutes pge2 area (counts) Avg. LLE / COX2 10 minutes pge2 area (counts) Avg. LLE / COX2 30 minutes pge2 area (counts) Avg. LLE: average LLE; for IC50: average
T1 sequence (P35354 1-604): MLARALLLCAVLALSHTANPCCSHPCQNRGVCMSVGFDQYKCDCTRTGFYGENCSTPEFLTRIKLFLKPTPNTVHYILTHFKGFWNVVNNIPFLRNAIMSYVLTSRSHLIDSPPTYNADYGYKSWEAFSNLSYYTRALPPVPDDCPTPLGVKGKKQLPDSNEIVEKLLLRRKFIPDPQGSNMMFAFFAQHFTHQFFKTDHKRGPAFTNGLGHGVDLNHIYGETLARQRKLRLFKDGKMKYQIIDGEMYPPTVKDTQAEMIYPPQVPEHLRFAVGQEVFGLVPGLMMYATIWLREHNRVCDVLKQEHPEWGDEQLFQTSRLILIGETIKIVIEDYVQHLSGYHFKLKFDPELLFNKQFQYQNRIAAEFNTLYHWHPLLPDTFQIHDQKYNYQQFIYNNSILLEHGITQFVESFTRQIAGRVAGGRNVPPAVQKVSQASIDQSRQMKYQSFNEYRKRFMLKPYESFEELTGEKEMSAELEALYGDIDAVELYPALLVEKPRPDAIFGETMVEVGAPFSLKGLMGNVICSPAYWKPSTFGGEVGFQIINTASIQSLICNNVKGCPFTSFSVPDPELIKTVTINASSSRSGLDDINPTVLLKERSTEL
Method in brief: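 PGE2 formed from arachidonic acid (final 5 μM, 2 min) was measured by LC-MS-MS against DMSO controls. Enzyme (oCOX-1 0.1 μg or hCOX2 0.2 μg) with hematin/epinephrine cofactors at pH 8.0 was given 10 min at 37 °C with compound first. Twelve-point curves run three times gave IC50.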

PBS Solubility (no DMSO) = type: physicochemical; conditions: aqueous buffer, thermodynamic from solid, average
[2] = Human Microsome Stability; type: in vitro ADME; conditions: human microsomes
[3] = 2 minutes, readout pge2/pge2d4 area ratio
[4] = 2 minutes, readout pge2/pge2d4 area ratio, read-out: COX2 2 minutes pge2/pge2d4 area ratio Avg. IC50
[5] = 2 minutes, readout pge2 area (counts)
[6] = 2 minutes, readout pge2 area (counts), read-out: COX2 2 minutes pge2 area (counts) Avg. IC50
[7] = 10 minutes, readout pge2 area (counts)
[8] = 10 minutes, readout pge2 area (counts), read-out: COX2 10 minutes pge2 area (counts) Avg. IC50
[9] = 30 minutes, readout pge2 area (counts)
[10] = 30 minutes, readout pge2 area (counts), read-out: COX2 30 minutes pge2 area (counts) Avg. IC50

Structure (SMILES)	COX2 2 minutes pge2/pge2d4 area ratio Avg. LLE [1, 3]	IC50 [1, 4] [nM]	COX2 2 minutes pge2 area (counts) Avg. LLE [1, 5]	IC50 [1, 6] [nM]	COX2 10 minutes pge2 area (counts) Avg. LLE [1, 7]	IC50 [1, 8] [nM]	solubility (PBS Solubility (no DMSO)) [µM]	COX2 30 minutes pge2 area (counts) Avg. LLE [1, 9]	IC50 [1, 10] [nM]	Human Microsome Stability % Remaining Avg [2] [%]
CS(=O)(=O)c1ccc(-c2cncc(OCc3cccs3)n2)cc1 [Compound 19]	5.643	10.2	5.681	9.01	6.3861	1.5	5.8 (≈ 2.01 µg/mL)			
COc1cc(NCc2cccs2)nc(-c2ccc(S(C)(=O)=O)cc2)c1 [Compound 50]	4.261	22.8	4.341	20	4.996	5		5.9869	0.416	
CS(=O)(=O)c1ccc(-c2cncc(NCc3cccs3)n2)cc1 [Compound 98]	5.067	76	5.168	61.6	6.195	5.57		6.4321	2.74	23.8
CS(=O)(=O)c1ccc(-c2cccc(OCc3ccoc3)n2)cc1 [Compound 16]	4.9079	9.12	4.932	8.71			10 (≈ 3.29 µg/mL)			24
CS(=O)(=O)c1ccc(-c2cc(F)cc(NCc3ccco3)n2)cc1 [Compound 14]	5.172	8.81	5.203	9.37			6.1 (≈ 2.11 µg/mL)			21
COc1ccc(NCc2cccs2)nc1-c1ccc(S(C)(=O)=O)cc1 [Compound 17]	4.653	9.62	4.644	9.92			1.3 (≈ 0.487 µg/mL)			
CS(=O)(=O)c1ccc(-c2nc(NCc3cccs3)cc3ccoc23)cc1 [Compound 2]	3.981	5.13	3.975	5.45			0.31 (≈ 0.119 µg/mL)			27
CS(=O)(=O)c1ccc(-c2cccc(NCc3ccc(F)o3)n2)cc1 [Compound 23]	4.592	11.4	4.619	10.7			24 (≈ 8.31 µg/mL)			11
CS(=O)(=O)c1ccc(-c2ccc(F)c(NCc3ccco3)n2)cc1 [Compound 15]	5.1257	8.91	5.098	9.62			4.5 (≈ 1.56 µg/mL)			45.5
CS(=O)(=O)c1ccc(-c2cccc(OCc3cccs3)n2)cc1 [Compound 1, 2-(4-methanesulfonylphenyl)-6-[(thiophen-2-yl)methoxy]pyridine]	4.864	3.27	4.806	3.66			1.1 (≈ 0.38 µg/mL)			38
COc1ncc(NCc2cccs2)nc1-c1ccc(S(C)(=O)=O)cc1 [Compound 29]	5.399	14.9	5.474	14.5			2.8 (≈ 1.05 µg/mL)			24
CS(=O)(=O)c1ccc(-c2cccc(NCc3ccco3)n2)cc1 [Compound 36]		17.5		18.2			27 (≈ 8.87 µg/mL)			17
CS(=O)(=O)c1ccc(-c2cccc(NCc3ccoc3)n2)cc1 [Compound 47, N-(furan-3-ylmethyl)-6-(4-(methylsulfonyl)phenyl)pyridin-2-amine]	4.86	21.2	4.974	15.5			88 (≈ 28.9 µg/mL)			16
CS(=O)(=O)c1ccc(-c2cccc(NCc3cccs3)n2)cc1 [Compound 24]		11.7		10.3			2.1 (≈ 0.723 µg/mL)			18
CS(=O)(=O)c1ccc(-c2ccc(F)c(NCc3ccoc3)n2)cc1 [Compound 33]	4.757	16.4	4.796	15.1			0.64 (≈ 0.222 µg/mL)			40
CS(=O)(=O)c1ccc(-c2cc(F)cc(NCc3ccoc3)n2)cc1 [Compound 34]	4.826	16.4	4.752	18.3			12 (≈ 4.16 µg/mL)			48
Cc1occc1CNc1cccc(-c2ccc(S(C)(=O)=O)cc2)n1 [Compound 21]	4.818	10.9	4.716	13.9			18 (≈ 6.16 µg/mL)			36
CS(=O)(=O)c1ccc(-c2cccc(/C=C\c3ccoc3)n2)cc1 [Compound 35, 2-[(Z)-2-(furan-3-yl)ethenyl]-6-(4-methanesulfonylphenyl)pyr]	4.232	17.2	4.214	17.4			37 (≈ 12 µg/mL)			19
COc1ncc(NCc2ccoc2)nc1-c1ccc(S(C)(=O)=O)cc1 [Compound 44]	5.722	19.6	5.725	20.1			28 (≈ 10.1 µg/mL)			
